Reference: patent US10485776B2, “Medicament for therapeutic treatment of neuropathic disease” (KEMPHYS LTD., priority 2013, dated 2019)
“And” between values parts separate entries of the source, which are not always exact repeats. Equal values may be shown once.

Tests used:
[1] = test system: model leg (left) footpad of sciatic nerve-ligated rat; experiment: Rat pain test, Seltzer partial sciatic nerve ligation model, von Frey up-and-down method, model leg (left); assay type: in vivo
[2] = test system: neuropathic pain mouse (L5 and L6 nerve ligation); experiment: Suppression of allodynia pain in mouse nerve ligation model, von Frey filament; assay type: in vivo; settings: for pain threshold of nerve-ligated group vs medium solvent-applied group: hind leg immersed
Protocol: FIG. 1 is a graph showing results of measurement of analgesic effect obtained by applying an aqueous solution of pregabalin (2.5 mg/ml) to a neuropathic pain mouse. The asterisks (*) indicate the presence of a significant difference with respect to the distilled water-applied group.
FIG. 2 is a graph showing results of measurement of analgesic effect obtained by applying an aqueous solution of pregabalin (7.5 mg/ml) to a neuropathic pain mouse. The asterisks (*) indicate the presence of a significant difference with respect to the distilled water-applied group.
The nerves L5 and L6 of mice (n=6) were ligated with silk threads to prepare pain model. A sham group was prepared as a control (n=6). After 4 weeks, hind legs of the mice were immersed in a 2.5 mg/ml or 7.5 mg/ml aqueous solution of pregabalin (solution prepared by dissolving 75 mg of pregabalin in 10 ml or 30 ml of distilled water) 5 minutes before the measurement until the hair of whole right hind leg was wetted with the solution, and air-dried over 30 minutes after the application. In this state, pain threshold was measured by using a von Frey standard filament, and then pain threshold was measured in the same manner 60 minutes, 90 minutes, and 180 minutes thereafter.

[3] = Serum pregabalin concentration after application to the back of an adult, LC/MS (Example 12); assay type: in vivo, human; settings: 150 mg in aqueous solution applied to the back
Protocol: An aqueous solution containing pregabalin (150 mg) was applied to the back of an adult. After the application, blood was collected, and the serum was deproteinized, and then reacted with dinitrobenzenesulfonyl chloride to derivatize pregabalin. Pregabalin was quantified by LC/MS. The pregabalin concentration reached 9 ng/ml 30 minutes after the administration, and this concentration was maintained thereafter over 3 hours or longer.

[4] = test system: normal leg (right) footpad of rat; experiment: Rat pain test, Seltzer model, von Frey up-and-down method, normal leg (right); assay type: in vivo
[5] = model site, 1 mg/site on footpad, individual animals No. 71-78
[6] = model site, 1 mg/site, average of 8 animals
[7] = normal site, 1 mg/site on footpad, individual animals No. 71-78
[8] = normal site, 1 mg/site, average of 8 animals

## CC(C)C[C@H](CN)CC(=O)O [Pregabalin]
[1]; 10.0 mg/mL in water with 0.1% Tween 80, 0.10 mL on footpad, after 1 hour
  change of pain threshold values, pain model legs: Sufficient increase
[1]; [5]
  pain threshold value, 1 Hour after administration: 8.0 g and 2.0 g and 6.0 g (5×) and 4.0 g
  pain threshold value, 3 Hour after administration: 6.0 g (2×) and 2.0 g (2×) and 4.0 g (4×)
  pain threshold value, 6 Hour after administration: 4.0 g and 1.0 g (3×) and 2.0 g (4×)
[1]; [6]
  pain threshold value, 1 Hour after administration, Average: 5.5 g
  pain threshold value, 3 Hour after administration, Average: 4.0 g
  pain threshold value, 6 Hour after administration, Average: 1.9 g
[1]; model site, average of 8 animals, baseline before 1 mg/site
  pain threshold value, before administration, Average: 1.6 g
[1]; model site, individual animals No. 71-78, baseline before 1 mg/site
  pain threshold value, before administration: 2.0 g (2×) and 1.4 g (6×)
[2]; 2.5 mg/ml aqueous solution (low dose group), FIG. 1
  pain threshold of nerve-ligated group vs medium solvent-applied group: statistically significant improvement
[2]; 7.5 mg/ml aqueous solution (high dose group), FIG. 2
  pain threshold of nerve-ligated group vs medium solvent-applied group: statistically significant improvement
[2]; both 2.5 and 7.5 mg/ml groups
  persistence of pain threshold improvement: maintained even after 3 hours
[3]; 9 ng/ml level
  time the serum concentration was maintained: ≥ 3 h
[3]; male, human, serum, topical, 30 minutes after the administration
  concentration at 30 min: 9 ng/mL
[4]; 10.0 mg/mL in water with 0.1% Tween 80, 0.10 mL on footpad
  change of pain threshold value, normal leg: Increase of the threshold value was also observed
[4]; [7]
  pain threshold value, 1 Hour after administration: 10.0 g and 8.0 g and 15.0 g (2×) and 26.0 g (4×)
  pain threshold value, 3 Hour after administration: 10.0 g (3×) and 26.0 g (2×) and 15.0 g (3×)
  pain threshold value, 6 Hour after administration: 10.0 g (5×) and 8.0 g and 15.0 g (2×)
[4]; [8]
  pain threshold value, 1 Hour after administration, Average: 19.0 g
  pain threshold value, 3 Hour after administration, Average: 15.9 g
  pain threshold value, 6 Hour after administration, Average: 11.0 g
[4]; normal site, average of 8 animals, baseline before 1 mg/site
  pain threshold value, before administration, Average: 10.8 g
[4]; normal site, individual animals No. 71-78, baseline before 1 mg/site
  pain threshold value, before administration: 8.0 g (2×) and 10.0 g (4×) and 15.0 g (2×)
